Literature values in patent US9050351B2, “Topical compositions designed to maintain or restore the integrity of the mucous membranes” (RICEFARMA S.R.L., priority 2010, dated 2015).

What was measured:
[1] = as disclosed in WO93/19730

In the case of `C[N+](C)(C)CCOP(=O)([O-])OC[C@H](O)CO` [choline alfoscerate, L-alpha-glycerylphosphorylcholine], the “incidence of skin irritation, eye irritation and skin sensitisation” value [1] is listed as “low”, the systemic toxicity [1] is listed as “practically devoid” and the topical tolerability [1] is listed as “marked”. The “solubility in water and ethanol” value was “highly soluble”.
